A word on the IC50: it is the concentration that gives 50% inhibition. Low readings indicate greater potency, high ones weaker potency. A word on the inhibition: it is the drop in the measured response relative to a control, in per cent. Read a high inhibition as strong suppression.

Test [1] has as its target T1, USP1-UAF1 complex (Homo sapiens, UniProt O94782). As to the kind of experiment: biochemical.
Experimental: (§1) Biochemical Assay: The compounds were evaluated for their potential to inhibit USP1-UAF1 complex (Boston Biochem, Catalog: E568-050) using a fluorescence-based assay. The final concentrations of USP1-UAF1 complex protein and substrate Ubiquitin-Rhodamine-110 (R&D systems, Catalog U-555-050) used in the assay were 0.45 and 150 nM respectively. 50 mM HEPES pH. 7.5, 100 mM NaCl, 0.5 mM EDTA, 1 mM TCEP, 10% BSA, 0.01% Tween 20 buffer was used in the assay. The total assay volume was 20 μL. […] The final DMSO concentration in the assay was 1%. The compounds were pre-incubated with USP1-UAF1 complex at 25° C. for 15 min. After preincubation, required concentration of substrate was added and incubated at 25° C. for 60 min. Fluorescence at Excitation: 485 nm, Emission: 535 nm was measured in Victor-5 from Perkin Elmer.
(§2) To determine IC50 values, dose response curves were generated by plotting percentage inhibition as a function of inhibitor concentration and the data was fitted to sigmoidal non-linear regression equation (variable slope) using Graph Pad prism software V8.
(§3) The compounds were screened by the above-mentioned assay procedure.
Test [2] deals with T1, USP1-UAF1 complex. Conditions: 1.2 µM.
Experimental: as §1, §2, §3

T1 sequence (O94782 whole entry): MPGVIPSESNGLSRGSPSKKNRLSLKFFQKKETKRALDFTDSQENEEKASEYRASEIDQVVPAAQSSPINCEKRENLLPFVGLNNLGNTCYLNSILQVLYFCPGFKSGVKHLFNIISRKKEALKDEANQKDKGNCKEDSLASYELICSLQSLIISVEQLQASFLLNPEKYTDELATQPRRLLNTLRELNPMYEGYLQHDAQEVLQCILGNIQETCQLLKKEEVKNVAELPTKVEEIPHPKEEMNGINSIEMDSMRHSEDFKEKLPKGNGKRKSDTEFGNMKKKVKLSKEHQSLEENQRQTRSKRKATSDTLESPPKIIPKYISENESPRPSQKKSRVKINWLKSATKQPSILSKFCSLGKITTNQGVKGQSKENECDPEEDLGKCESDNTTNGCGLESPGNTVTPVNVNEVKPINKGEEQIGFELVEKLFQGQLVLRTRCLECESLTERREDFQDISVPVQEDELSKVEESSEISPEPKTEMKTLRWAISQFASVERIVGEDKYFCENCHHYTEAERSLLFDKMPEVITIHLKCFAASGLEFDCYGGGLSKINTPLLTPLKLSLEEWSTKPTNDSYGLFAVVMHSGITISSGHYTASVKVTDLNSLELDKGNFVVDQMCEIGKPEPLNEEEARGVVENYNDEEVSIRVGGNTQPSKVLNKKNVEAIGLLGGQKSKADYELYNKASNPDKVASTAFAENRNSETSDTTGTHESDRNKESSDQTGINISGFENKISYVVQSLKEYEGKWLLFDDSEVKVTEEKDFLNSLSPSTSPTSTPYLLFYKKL
T1 sequence (Q8TAF3 whole entry partner): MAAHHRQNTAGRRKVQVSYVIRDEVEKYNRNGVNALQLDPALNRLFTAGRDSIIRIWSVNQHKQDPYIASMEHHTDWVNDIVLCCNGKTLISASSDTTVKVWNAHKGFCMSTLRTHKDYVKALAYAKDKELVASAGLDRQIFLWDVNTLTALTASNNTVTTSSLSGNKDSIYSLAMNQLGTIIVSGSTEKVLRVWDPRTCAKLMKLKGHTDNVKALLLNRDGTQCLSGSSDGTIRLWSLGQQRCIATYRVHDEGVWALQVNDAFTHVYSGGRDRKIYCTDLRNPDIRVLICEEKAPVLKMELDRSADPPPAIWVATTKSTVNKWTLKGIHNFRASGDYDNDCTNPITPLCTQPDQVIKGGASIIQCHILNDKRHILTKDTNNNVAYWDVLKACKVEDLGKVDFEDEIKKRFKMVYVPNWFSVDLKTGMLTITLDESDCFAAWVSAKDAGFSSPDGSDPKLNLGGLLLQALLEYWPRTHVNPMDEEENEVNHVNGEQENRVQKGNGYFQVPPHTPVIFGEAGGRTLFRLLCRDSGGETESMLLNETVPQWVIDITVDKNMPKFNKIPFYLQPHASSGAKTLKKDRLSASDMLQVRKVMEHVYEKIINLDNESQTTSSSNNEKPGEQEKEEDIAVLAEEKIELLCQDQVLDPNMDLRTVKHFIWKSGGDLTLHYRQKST

Consider `COc1ncnc(C2CC2)c1-c1nn(C)c2c1CN(c1ccc(-c3nc(C(F)(F)F)cn3C)cn1)CC2` [Compound 13, 3-(4-cyclopropyl-6-methoxypyrimidin-5-yl)-1-methyl-5-(5-(1-methyl-4-(trifluoromethyl)-1H-imidazol-2-yl)pyridin-2-yl)-4,5,6,7-tetrahydro-1H-pyrazolo[4,3-c]pyridine], for which the IC50 on USP1-UAF1 complex [1] was below 50 nM. Also, the inhibition at USP1-UAF1 complex [2] came to 98%.
The corresponding values for `CCOc1cc(C(F)(F)F)nn1-c1ccc(N2CCc3c(c(-c4c(OC)ncnc4C4CC4)nn3C)C2)cc1` [Compound 20, 3-(4-cyclopropyl-6-methoxypyrimidin-5-yl)-5-(4-(5-ethoxy-3-(trifluoromethyl)-1H-pyrazol-1-yl)phenyl)-1-methyl-4,5,6,7-tetrahydro-1H-pyrazolo[4,3-c]pyridine] are below 50 nM and 99%.
Taken in the same sequence, the figures for `COc1ncnc(C2CC2)c1-c1nn(C2CC2)c2c1CN(c1ccc(-c3nc(C(F)(F)F)cn3C)nc1)CC2` [Compound 31, 1-cyclopropyl-3-(4-cyclopropyl-6-methoxypyrimidin-5-yl)-5-(6-(1-methyl-4-(trifluoromethyl)-1H-imidazol-2-yl)pyridin-3-yl)-4,5,6,7-tetrahydro-1H-pyrazolo[4,3-c]pyridine] were above 100 nM and 86%.
Taken in the same sequence, the figures for `COc1ncnc(C2CC2)c1-c1nn(C)c2c1CN(c1ccc(-c3nc(C(F)(F)F)cn3C)c(F)c1)CC2` [Compound 44, 3-(4-cyclopropyl-6-methoxypyrimidin-5-yl)-5-(3-fluoro-4-(1-methyl-4-(trifluoromethyl)-1H-imidazol-2-yl)phenyl)-1-methyl-4,5,6,7-tetrahydro-1H-pyrazolo[4,3-c]pyridine] were below 50 nM and 100%.
The compound `COc1ncnc(C2CC2)c1-c1nn(C)c2c1CN(c1ccc(-c3nc(C(F)(F)F)cn3C)cn1)CC2(C)C` [Compound 43, 3-(4-cyclopropyl-6-methoxypyrimidin-5-yl)-1,7,7-trimethyl-5-(5-(1-methyl-4-(trifluoromethyl)-1H-imidazol-2-yl)pyridin-2-yl)-4,5,6,7-tetrahydro-1H-pyrazolo[4,3-c]pyridine] yielded an IC50 at USP1-UAF1 complex [1] of 50 to 100 nM. In addition, on USP1-UAF1 complex [2], the inhibition was 98%.
Taken in the same sequence, the figures for `COc1ncnc(C2CC2)c1-c1nn(C(C)C)c2c1CN(c1ccc(-c3nc(C(F)(F)F)cn3C)cn1)CC2` [Compound 29, 3-(4-cyclopropyl-6-methoxypyrimidin-5-yl)-1-isopropyl-5-(5-(1-methyl-4-(trifluoromethyl)-1H-imidazol-2-yl)pyridin-2-yl)-4,5,6,7-tetrahydro-1H-pyrazolo[4,3-c]pyridine] were above 100 nM and 90%.
Turning to `COc1ncnc(C2CC2)c1-c1nn(C)c2c1CN(c1ccc(-c3nc(C(F)(F)F)cn3C(C)C)cn1)CC2` [Compound 15, 3-(4-cyclopropyl-6-methoxypyrimidin-5-yl)-5-(5-(1-isopropyl-4-(trifluoromethyl)-1H-imidazol-2-yl)pyridin-2-yl)-1-methyl-4,5,6,7-tetrahydro-1H-pyrazolo[4,3-c]pyridine], on USP1-UAF1 complex [1], the IC50 was in the range of 50 to 100 nM. Moreover, the inhibition on USP1-UAF1 complex [2] was 96%.
As to `CCOc1ncnc(C2CC2)c1-c1nn(C)c2c1CN(c1ccc(-c3nc(C(F)(F)F)cn3C)cc1)CC2` [Compound 58, 3-(4-cyclopropyl-6-ethoxypyrimidin-5-yl)-1-methyl-5-(4-(1-methyl-4-(trifluoromethyl)-1H-imidazol-2-yl)phenyl)-4,5,6,7-tetrahydro-1H-pyrazolo[4,3-c]pyridine], the IC50 at USP1-UAF1 complex [1] is below 50 nM. Besides, the inhibition on USP1-UAF1 complex [2] came out at 98%.
The compound `COc1ncnc(C2CC2)c1-c1nn(C)c2c1CN(c1ncc(-c3nc(C(F)(F)F)cn3C)cn1)CC2` [Compound 59, 3-(4-cyclopropyl-6-methoxypyrimidin-5-yl)-1-methyl-5-(5-(1-methyl-4-(trifluoromethyl)-1H-imidazol-2-yl)pyrimidin-2-yl)-4,5,6,7-tetrahydro-1H-pyrazolo[4,3-c]pyridine] registered an IC50 on USP1-UAF1 complex [1] of 50 to 100 nM. This compound also returned an inhibition against USP1-UAF1 complex [2] of 95%.
The compound `COc1ncnc(C2CC2)c1-c1nn(C)c2c1CN(c1ccc(-c3nc(C(F)(F)F)cn3C)c(Cl)c1)CC2` [Compound 45, 5-(3-chloro-4-(1-methyl-4-(trifluoromethyl)-1H-imidazol-2-yl)phenyl)-3-(4-cyclopropyl-6-methoxypyrimidin-5-yl)-1-methyl-4,5,6,7-tetrahydro-1H-pyrazolo[4,3-c]pyridine] showed an IC50 at USP1-UAF1 complex [1] below 50 nM. The inhibition at USP1-UAF1 complex [2] stood at 98%.
Taken in the same sequence, the figures for `COc1ncnc(C2CC2)c1-c1nn(C)c2c1CN(c1ccc(-c3nn(C)c4c3CN(C)CC4)cc1)CC2` [Compound 53, 3-(4-cyclopropyl-6-methoxypyrimidin-5-yl)-5-(4-(1,5-dimethyl-4,5,6,7-tetrahydro-1H-pyrazolo[4,3-c]pyridin-3-yl)phenyl)-1-methyl-4,5,6,7-tetrahydro-1H-pyrazolo[4,3-c]pyridine] were above 100 nM and 42%.
Take `COc1ncnc(C2CC2)c1-c1nn(Cc2ccccc2)c2c1CN(c1ccc(-c3nc(C(F)(F)F)cn3C)cn1)CC2` [Compound 37, 1-benzyl-3-(4-cyclopropyl-6-methoxypyrimidin-5-yl)-5-(5-(1-methyl-4-(trifluoromethyl)-1H-imidazol-2-yl)pyridin-2-yl)-4,5,6,7-tetrahydro-1H-pyrazolo[4,3-c]pyridine]: the IC50 against USP1-UAF1 complex [1] lay within 50 to 100 nM. Besides, the inhibition on USP1-UAF1 complex [2] was determined as 98%.
As to `COc1ncnc(C2CC2)c1-c1nn(C2CC2)c2c1CN(c1ccc(-c3nc(C(F)(F)F)cn3C)cc1)CC2` [Compound 30, 1-cyclopropyl-3-(4-cyclopropyl-6-methoxypyrimidin-5-yl)-5-(4-(1-methyl-4-(trifluoromethyl)-1H-imidazol-2-yl)phenyl)-4,5,6,7-tetrahydro-1H-pyrazolo[4,3-c]pyridine], the IC50 against USP1-UAF1 complex [1] is below 50 nM. The same compound displayed an inhibition at USP1-UAF1 complex [2] of 98%.
The corresponding values for `COc1ncnc(C2CC2)c1-c1nn(C)c2c1CN(c1csc(-c3nc(C(F)(F)F)cn3C)c1)CC2` [Compound 49, 3-(4-cyclopropyl-6-methoxypyrimidin-5-yl)-1-methyl-5-(5-(1-methyl-4-(trifluoromethyl)-1H-imidazol-2-yl)thiophen-3-yl)-4,5,6,7-tetrahydro-1H-pyrazolo[4,3-c]pyridine] are above 100 nM and 14%.
Taken in the same sequence, the figures for `COc1ncnc(C2CC2)c1-c1nn(C)c2c1CN(c1ccc(-c3nc(Cl)cn3C)cc1)CC2` [Compound 21, 5-(4-(4-chloro-1-methyl-1H-imidazol-2-yl)phenyl)-3-(4-cyclopropyl-6-methoxypyrimidin-5-yl)-1-methyl-4,5,6,7-tetrahydro-1H-pyrazolo[4,3-c]pyridine] were below 50 nM and 97%.
Regarding `COc1ncnc(C2CC2)c1-c1nn(C)c2c1CN(c1ccc(-c3nc(C(F)(F)F)cn3C3CNC3)cc1)CC2` [Compound 55, 5-(4-(1-(azetidin-3-yl)-4-(trifluoromethyl)-1H-imidazol-2-yl)phenyl)-3-(4-cyclopropyl-6-methoxypyrimidin-5-yl)-1-methyl-4,5,6,7-tetrahydro-1H-pyrazolo[4,3-c]pyridine], the IC50 on USP1-UAF1 complex [1] is above 100 nM. On USP1-UAF1 complex [2], this compound yielded an inhibition of 87%.

(Values after patent US20260152498A1, “4,5,6,7-TETRAHYDRO-1H-PYRAZOLO[4,3-c]PYRIDINE COMPOUNDS AND DERIVATIVES AS USP1 INHIBITORS” (EXELIXIS, INC., priority 2022, published 2026).)
